In ChEMBL document CHEMBL5696439 (Cancer Res, 2010):
The source made the active and inactive calls. No cut-off for these calls is given here.

Columns and labels:
[1] = molecular target: Serine/threonine-protein kinase Sgk3 (Homo sapiens) (UniProt Q96BR1); assay: Inhibition of recombinant human GST-tagged SGK3 (87-496 residues) expressed in insect cells at 2 uM using Ser/Thr 06 as substrate measured after 1 hr by Z'-LYTE assay relative to control; settings: Insect cell
[2] = test system: MDA-MB-361; assay: Antitumor activity against human MDA-MB-361 cells xenografted in female nude mouse model assessed as suppression in P-S6 level at 6 to 12 mg/kg, po qd administered as 5 days on/2 days off regimen for 4 cycles by immunoblot analysis; assay type: functional, organism-based; settings: dose 6-12 mg/kg, time 28.0 day
[3] = molecular target: Receptor tyrosine-protein kinase erbB-4 (Homo sapiens) (UniProt Q15303); assay: Inhibition of recombinant human GST-tagged ERBB4 (708-993 residues) expressed in insect cells at 2 uM using Tyr 01 as substrate measured after 1 hr by Z'-LYTE assay relative to control; settings: Insect cell
Receptor tyrosine-protein kinase erbB-4 (Homo sapiens), sequence (Q15303 whole entry, the tested form may be a part): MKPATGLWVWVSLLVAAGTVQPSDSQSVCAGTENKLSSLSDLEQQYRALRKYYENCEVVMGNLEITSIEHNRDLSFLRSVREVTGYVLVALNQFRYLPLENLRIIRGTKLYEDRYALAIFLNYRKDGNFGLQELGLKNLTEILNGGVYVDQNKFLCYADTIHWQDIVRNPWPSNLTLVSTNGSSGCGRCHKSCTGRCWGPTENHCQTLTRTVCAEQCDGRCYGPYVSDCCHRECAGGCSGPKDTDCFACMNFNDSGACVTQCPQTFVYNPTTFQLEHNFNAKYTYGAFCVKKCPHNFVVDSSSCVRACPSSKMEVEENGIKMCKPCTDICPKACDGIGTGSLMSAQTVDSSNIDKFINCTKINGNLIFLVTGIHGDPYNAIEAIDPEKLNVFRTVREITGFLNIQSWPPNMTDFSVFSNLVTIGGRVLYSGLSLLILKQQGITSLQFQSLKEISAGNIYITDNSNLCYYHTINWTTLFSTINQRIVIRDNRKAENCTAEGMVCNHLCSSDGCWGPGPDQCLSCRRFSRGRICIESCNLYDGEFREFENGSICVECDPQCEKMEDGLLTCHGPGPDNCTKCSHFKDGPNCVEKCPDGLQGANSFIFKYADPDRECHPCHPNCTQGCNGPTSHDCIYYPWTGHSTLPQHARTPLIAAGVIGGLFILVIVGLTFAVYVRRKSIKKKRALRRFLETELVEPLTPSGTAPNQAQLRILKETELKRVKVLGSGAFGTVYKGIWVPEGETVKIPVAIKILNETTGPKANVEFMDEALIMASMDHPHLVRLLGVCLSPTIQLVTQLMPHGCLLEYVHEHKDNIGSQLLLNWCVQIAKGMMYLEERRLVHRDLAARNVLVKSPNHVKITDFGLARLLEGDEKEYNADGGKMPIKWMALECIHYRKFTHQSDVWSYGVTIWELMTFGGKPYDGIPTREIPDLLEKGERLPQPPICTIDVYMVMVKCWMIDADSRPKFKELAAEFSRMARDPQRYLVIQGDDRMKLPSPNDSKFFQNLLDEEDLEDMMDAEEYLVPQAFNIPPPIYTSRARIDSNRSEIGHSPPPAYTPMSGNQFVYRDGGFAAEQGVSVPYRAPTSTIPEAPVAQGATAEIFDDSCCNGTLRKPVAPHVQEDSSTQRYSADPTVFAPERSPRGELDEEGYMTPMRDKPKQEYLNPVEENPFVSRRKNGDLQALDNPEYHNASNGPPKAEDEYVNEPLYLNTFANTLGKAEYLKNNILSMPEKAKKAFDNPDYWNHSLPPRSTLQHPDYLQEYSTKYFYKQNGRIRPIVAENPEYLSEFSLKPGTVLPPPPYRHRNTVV

[4] = test system: HT-29; assay: Antitumor activity against human HT-29 cells xenografted in female nude mouse model assessed as reduction in P-AKT at T308 level at 50 mg/kg, iv administered once a week and measured at least 8 hrs by immunoblot analysis; assay type: functional, organism-based
[5] = molecular target: Mitogen-activated protein kinase 11 (Homo sapiens) (UniProt Q15759); assay: Inhibition of recombinant human full length His-tagged MAPK11 expressed in insect cells at 2 uM using Ser/Thr 15 as substrate measured after 1 hr by Z'-LYTE assay relative to control; settings: Insect cell
[6] = molecular target: Casein kinase I isoform alpha (Homo sapiens) (UniProt P48729); assay: Inhibition of recombinant human full-length GST-tagged CSNK1A1 at 2 uM using Ser/Thr 11 as substrate measured after 1 hr by Z'-LYTE assay relative to control
Casein kinase I isoform alpha (Homo sapiens), sequence (P48729 2-337 limits assumed): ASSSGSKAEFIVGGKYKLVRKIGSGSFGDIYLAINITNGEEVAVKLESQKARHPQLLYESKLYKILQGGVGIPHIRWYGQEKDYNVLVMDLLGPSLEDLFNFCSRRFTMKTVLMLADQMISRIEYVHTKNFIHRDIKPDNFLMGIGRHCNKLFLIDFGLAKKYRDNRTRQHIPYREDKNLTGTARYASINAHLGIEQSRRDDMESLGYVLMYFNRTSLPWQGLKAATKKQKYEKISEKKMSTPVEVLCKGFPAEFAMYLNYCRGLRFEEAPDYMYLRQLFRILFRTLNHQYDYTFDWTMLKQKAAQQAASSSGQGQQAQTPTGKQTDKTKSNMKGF

[7] = molecular target: Insulin-like growth factor 1 receptor (Homo sapiens) (UniProt P08069); assay: Inhibition of recombinant human His-tagged IGF1R (960-1397 residues) expressed in baculovirus expression system at 2 uM using Tyr 01 as substrate measured after 1 hr by Z'-LYTE assay relative to control
Insulin-like growth factor 1 receptor (Homo sapiens), sequence (P08069 31-736 limits assumed): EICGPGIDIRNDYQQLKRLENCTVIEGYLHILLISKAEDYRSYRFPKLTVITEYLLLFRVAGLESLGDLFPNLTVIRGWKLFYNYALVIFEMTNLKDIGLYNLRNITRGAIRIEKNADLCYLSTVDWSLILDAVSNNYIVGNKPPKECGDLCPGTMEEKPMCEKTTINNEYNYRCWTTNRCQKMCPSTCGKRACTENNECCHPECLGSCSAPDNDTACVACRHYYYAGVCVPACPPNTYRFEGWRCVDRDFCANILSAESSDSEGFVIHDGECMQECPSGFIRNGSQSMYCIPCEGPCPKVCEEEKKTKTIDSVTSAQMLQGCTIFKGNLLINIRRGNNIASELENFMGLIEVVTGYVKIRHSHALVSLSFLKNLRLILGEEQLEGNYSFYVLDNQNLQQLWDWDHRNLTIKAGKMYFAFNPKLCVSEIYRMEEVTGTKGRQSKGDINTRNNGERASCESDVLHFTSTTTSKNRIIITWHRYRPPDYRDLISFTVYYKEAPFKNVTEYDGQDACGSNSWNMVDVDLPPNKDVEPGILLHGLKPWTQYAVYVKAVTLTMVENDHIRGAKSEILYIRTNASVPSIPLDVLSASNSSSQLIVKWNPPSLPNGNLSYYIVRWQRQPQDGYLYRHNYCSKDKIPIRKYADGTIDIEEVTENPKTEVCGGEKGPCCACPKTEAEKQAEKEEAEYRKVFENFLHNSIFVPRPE
Insulin-like growth factor 1 receptor (Homo sapiens), sequence (P08069 741-1367 limits assumed): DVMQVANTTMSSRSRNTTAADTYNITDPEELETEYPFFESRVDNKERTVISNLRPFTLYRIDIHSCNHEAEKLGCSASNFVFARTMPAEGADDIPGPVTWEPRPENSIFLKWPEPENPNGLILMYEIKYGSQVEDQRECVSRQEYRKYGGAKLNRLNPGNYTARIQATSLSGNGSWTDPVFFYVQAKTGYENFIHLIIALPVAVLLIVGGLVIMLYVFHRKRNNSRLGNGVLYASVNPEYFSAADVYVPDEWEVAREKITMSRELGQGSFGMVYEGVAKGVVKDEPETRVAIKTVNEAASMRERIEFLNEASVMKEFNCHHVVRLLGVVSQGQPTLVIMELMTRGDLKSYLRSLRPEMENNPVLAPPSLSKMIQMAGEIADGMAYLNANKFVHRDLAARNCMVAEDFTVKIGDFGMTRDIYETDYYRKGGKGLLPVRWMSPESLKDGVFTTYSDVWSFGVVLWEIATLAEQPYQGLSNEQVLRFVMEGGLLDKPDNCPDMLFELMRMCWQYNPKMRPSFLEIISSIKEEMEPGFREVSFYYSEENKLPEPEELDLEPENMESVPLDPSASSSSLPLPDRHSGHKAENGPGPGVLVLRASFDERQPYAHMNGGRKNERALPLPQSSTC

[8] = molecular target: Calcium/calmodulin-dependent protein kinase type II subunit delta (Homo sapiens) (UniProt Q13557); assay: Inhibition of recombinant human full-length His-tagged CAMK2D expressed in insect cells at 2 uM using Ser/Thr 04 as substrate measured after 1 hr by Z'-LYTE assay relative to control; settings: Insect cell
[9] = molecular target: Activin receptor type-1B (Homo sapiens) (UniProt P36896); assay: Inhibition of recombinant human GST-tagged ACVR1B (150 to 505 residues) expressed in insect cells at 2 uM using Ser/Thr 16 as substrate measured after 1 hr by Z'-LYTE assay relative to control; settings: Insect cell
Activin receptor type-1B (Homo sapiens), sequence (P36896 whole entry, the tested form may be a part): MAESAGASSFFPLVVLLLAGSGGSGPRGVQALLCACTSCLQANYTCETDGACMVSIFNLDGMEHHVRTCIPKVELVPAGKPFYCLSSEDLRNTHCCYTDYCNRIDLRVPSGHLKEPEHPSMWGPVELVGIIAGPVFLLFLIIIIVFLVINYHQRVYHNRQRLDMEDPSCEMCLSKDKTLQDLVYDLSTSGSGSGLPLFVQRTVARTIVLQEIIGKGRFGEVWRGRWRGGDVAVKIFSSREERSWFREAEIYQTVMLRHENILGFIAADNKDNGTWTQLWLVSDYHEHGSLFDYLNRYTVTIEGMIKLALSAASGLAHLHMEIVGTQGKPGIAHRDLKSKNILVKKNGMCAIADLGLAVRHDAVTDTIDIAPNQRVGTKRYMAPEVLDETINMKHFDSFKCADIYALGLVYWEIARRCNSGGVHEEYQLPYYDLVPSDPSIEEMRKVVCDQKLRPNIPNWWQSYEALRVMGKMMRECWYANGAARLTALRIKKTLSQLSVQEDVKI

[10] = molecular target: Serine/threonine-protein kinase SMG1 (Homo sapiens, UniProt Q96Q15); assay: Inhibition of human SMG1 using glutathione S-transferase-p53 as substrate by DELFIA
[11] = molecular target: Dual specificity mitogen-activated protein kinase kinase 2 (Homo sapiens) (UniProt P36507); assay: Inhibition of recombinant human full length His-tagged MAP2K2 expressed in baculovirus expression system at 2 uM using Ser/Thr 03 as substrate measured after 1 hr by Z'-LYTE assay relative to control
[12] = test system: U-87 MG; assay: Antiproliferative activity against human U-87MG cells assessed as cell growth inhibition incubated for 24 hrs by MTS assay; assay type: functional, cell-based, U-87MG ATCC
[13] = molecular target: Mitogen-activated protein kinase kinase kinase 9 (Homo sapiens) (UniProt P80192); assay: Inhibition of recombinant human GST-tagged MAP3K9 (1-500 residues) expressed in insect cells at 2 uM using Ser/Thr 07 as substrate measured after 1 hr by Z'-LYTE assay relative to control; settings: Insect cell
[14] = test system: MDA-MB-361; assay: Antitumor activity against human MDA-MB-361 cells xenografted in female nude mouse model assessed as tumor growth delay at po qd administered as 5 days on/2 days off regimen for 4 cycles; assay type: functional, organism-based; settings: dose 5-20 mg/kg, time 28.0 day
[15] = test system: MDA-MB-361; assay: Induction of apoptosis in PI3K/mTOR hyperactive human MDA-MB-361 cells assessed as cell death at 0.001 to 100 micromol/L incubated for 24 hrs by FACS analysis; assay type: functional, cell-based; settings: dose 0.001-100 µmol/L
[16] = molecular target: Serine/threonine-protein kinase PAK 6 (Homo sapiens) (UniProt Q9NQU5); assay: Inhibition of recombinant human full length His-tagged PAK6 expressed in insect cells at 2 uM using Ser/Thr 20 as substrate measured after 1 hr by Z'-LYTE assay relative to control; settings: Insect cell
Serine/threonine-protein kinase PAK 6 (Homo sapiens), sequence (Q9NQU5 whole entry, looked up): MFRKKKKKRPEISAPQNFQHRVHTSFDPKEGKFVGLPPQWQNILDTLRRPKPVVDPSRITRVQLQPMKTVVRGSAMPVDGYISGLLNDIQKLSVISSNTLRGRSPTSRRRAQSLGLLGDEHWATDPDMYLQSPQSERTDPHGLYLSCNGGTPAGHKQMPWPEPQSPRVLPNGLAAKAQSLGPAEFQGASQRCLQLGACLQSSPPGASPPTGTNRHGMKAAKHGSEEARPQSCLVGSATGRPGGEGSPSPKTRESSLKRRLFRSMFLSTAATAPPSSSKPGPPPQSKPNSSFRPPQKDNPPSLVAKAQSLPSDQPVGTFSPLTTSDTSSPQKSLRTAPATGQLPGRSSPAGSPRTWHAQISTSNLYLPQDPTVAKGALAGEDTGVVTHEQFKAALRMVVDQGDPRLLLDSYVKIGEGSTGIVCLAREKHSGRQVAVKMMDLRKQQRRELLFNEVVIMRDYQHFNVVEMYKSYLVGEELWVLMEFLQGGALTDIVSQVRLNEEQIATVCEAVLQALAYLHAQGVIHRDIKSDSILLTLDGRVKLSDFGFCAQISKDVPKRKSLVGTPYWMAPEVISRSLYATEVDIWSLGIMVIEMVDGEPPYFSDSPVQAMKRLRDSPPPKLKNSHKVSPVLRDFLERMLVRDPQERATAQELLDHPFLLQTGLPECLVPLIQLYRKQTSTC

[17] = molecular target: cGMP-dependent protein kinase 2 (Homo sapiens) (UniProt Q13237); assay: Inhibition of recombinant human full length GST-tagged PRKG2 expressed in insect cells at 2 uM using Ser/Thr 01 as substrate measured after 1 hr by Z'-LYTE assay relative to control; settings: Insect cell
[18] = test system: U-87 MG; assay: Induction of apoptosis in human U-87MG cells assessed as increase in G1 phase at 1 micromol/L incubated for 24 hrs by FACS analysis; assay type: functional, cell-based; settings: U-87MG ATCC, dose 1.0 µmol/L
[19] = test system: U-87 MG; assay: Induction of apoptosis in human U-87MG cells assessed as reduction in S phase at 1 micromol/L incubated for 24 hrs by FACS analysis; assay type: functional, cell-based; settings: U-87MG ATCC, dose 1.0 µmol/L
[20] = molecular target: Ephrin type-A receptor 2 (Homo sapiens) (UniProt P29317); assay: Inhibition of recombinant human GST-tagged EPHA2 (568-976 residues) expressed in insect cells at 2 uM using Tyr 01 as substrate measured after 1 hr by Z'-LYTE assay relative to control; settings: Insect cell
[21] = molecular target: Aurora kinase C (Homo sapiens) (UniProt Q9UQB9); assay: Inhibition of recombinant human full-length GST-tagged AURKC expressed in insect cells at 2 uM using Ser/Thr 19 as substrate measured after 1 hr by Z'-LYTE assay relative to control; settings: Insect cell
Aurora kinase C (Homo sapiens), sequence (Q9UQB9 whole entry): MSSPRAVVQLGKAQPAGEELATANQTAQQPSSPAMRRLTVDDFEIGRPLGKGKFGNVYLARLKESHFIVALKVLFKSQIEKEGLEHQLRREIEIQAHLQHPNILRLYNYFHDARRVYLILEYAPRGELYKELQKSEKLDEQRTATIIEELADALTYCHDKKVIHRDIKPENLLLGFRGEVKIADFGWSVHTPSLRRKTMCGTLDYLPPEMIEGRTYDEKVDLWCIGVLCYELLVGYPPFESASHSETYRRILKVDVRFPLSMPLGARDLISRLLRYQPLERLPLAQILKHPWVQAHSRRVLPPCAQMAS

[22] = test system: MDA-MB-361; assay: Induction of apoptosis in human MDA-MB-361 cells assessed as little increase in G1 phase at 5 micromol/L incubated for 12 hrs by FACS analysis relative to control; assay type: functional, cell-based; settings: dose 5.0 µmol/L
[23] = molecular target: Ephrin type-A receptor 3 (Homo sapiens) (UniProt P29320); assay: Inhibition of recombinant human His-tagged EPHA3 (568-976 residues) expressed in baculovirus expression system at 2 uM measured after 1 hr by Z'-LYTE assay relative to control
[24] = molecular target: Protein kinase C iota type (Homo sapiens) (UniProt P41743); assay: Inhibition of recombinant human full length His-tagged PRKCI expressed in baculovirus expression system at 2 uM using Ser/Thr 07 as substrate measured after 1 hr by Z'-LYTE assay relative to control
[25] = molecular target: Serine/threonine-protein kinase Nek1 (Homo sapiens) (UniProt Q96PY6); assay: Inhibition of recombinant human GST-tagged NEK1 (1-505 residues) expressed in insect cells at 2 uM using Ser/Thr 07 as substrate measured after 1 hr by Z'-LYTE assay relative to control; settings: Insect cell
[26] = molecular target: PAS domain-containing serine/threonine-protein kinase (Homo sapiens) (UniProt Q96RG2); assay: Inhibition of recombinant human GST-tagged PASK (879-1323 residues) expressed in insect cells at 2 uM using Ser/Thr 07 as substrate measured after 1 hr by Z'-LYTE assay relative to control; settings: Insect cell

Serine/threonine-protein kinase Sgk3 (Homo sapiens), sequence (Q96BR1 whole entry, the tested form may be a part): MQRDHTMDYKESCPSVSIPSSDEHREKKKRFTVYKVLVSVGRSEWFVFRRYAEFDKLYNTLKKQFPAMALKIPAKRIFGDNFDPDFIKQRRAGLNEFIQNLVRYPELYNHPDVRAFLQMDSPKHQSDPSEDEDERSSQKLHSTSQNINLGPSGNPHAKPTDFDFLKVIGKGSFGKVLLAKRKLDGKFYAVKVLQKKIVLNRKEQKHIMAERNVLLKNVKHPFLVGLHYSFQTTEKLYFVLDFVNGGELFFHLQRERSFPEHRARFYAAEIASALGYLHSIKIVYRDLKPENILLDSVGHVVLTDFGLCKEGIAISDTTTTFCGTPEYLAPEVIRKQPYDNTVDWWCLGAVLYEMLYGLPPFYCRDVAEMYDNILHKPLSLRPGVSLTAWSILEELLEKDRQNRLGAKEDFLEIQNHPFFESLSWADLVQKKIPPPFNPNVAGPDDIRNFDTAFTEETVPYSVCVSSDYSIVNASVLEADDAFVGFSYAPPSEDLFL

How did the inhibition [1] turn out when `CNC(=O)Nc1ccc(-c2nc(N3CC4CCC(C3)O4)c3cnn(C4CCC5(CC4)OCCO5)c3n2)cc1` was run?
Its inhibition is 3%.

And the Activity [2]?
Its Activity is “Active”.

What about the inhibition [3] of the same molecule?
The inhibition was 3%.

What about the Activity [4] of the same molecule?
The Activity was “inactive”.

What about the inhibition [5] of the same molecule?
The inhibition was 2%.

And the inhibition [6]?
The inhibition was 2%.

What about the inhibition [7] of the same molecule?
The inhibition was 1%.

What about the inhibition [8] of the same molecule?
Its inhibition is 11%.

What about the inhibition [9] of the same molecule?
Its inhibition is 3%.

What about the IC50 [10] of the same molecule?
Its IC50 is 1250 nM.

And the inhibition [11]?
The inhibition was 2%.

And the IC50 [12]?
Its IC50 is 65 nM.

And the inhibition [13]?
Its inhibition is 11%.

And the Activity [14]?
The Activity was “Dose-Dependent Effect”.

And the Activity [15]?
The Activity was “Active”.

What about the inhibition [16] of the same molecule?
Its inhibition is 9%.

What about the inhibition [17] of the same molecule?
Its inhibition is 9%.

What about the Activity [18] of the same molecule?
The Activity was “Active”.

And the Activity [19]?
The Activity was “Active”.

What about the inhibition [20] of the same molecule?
Its inhibition is 8%.

And the inhibition [21]?
Its inhibition is 4%.

What about the Activity [22] of the same molecule?
Its Activity is “Active”.

What about the inhibition [23] of the same molecule?
The inhibition was 4%.

And the inhibition [24]?
Its inhibition is 6%.

What about the inhibition [25] of the same molecule?
The inhibition was 7%.

What about the inhibition [26] of the same molecule?
The inhibition was 3%.
